Source: EPA's ToxRefDB 2

Columns and labels:
mouse [1] = settings: Carcinogenicity; b6c3f1; Oral; Gavage/Intubation; dose end: 90 week; group: systemic; systemic / pathology microscopic / liver / carcinoma + systemic / in life observation / clinical signs / alopecia + systemic / in life …
rat [2] = settings: Carcinogenicity; other; Oral; Gavage/Intubation; dose end: 113 week; group: systemic; systemic / in life observation / body weight / body weight gain + systemic / in life observation / clinical signs / nasal discharge + …
mouse [3] = settings: Subchronic oral toxicity in rodents, b6c3f1, Feed, dose end: 14 week, group: systemic
rat [4] = settings: Subchronic oral toxicity in rodents, fischer, Feed, dose end: 14 week, group: systemic
rabbit = settings: Prenatal developmental toxicity study, new zealand white, Oral, Gavage/Intubation, dose end: 18 GD
dog [5] = settings: Chronic toxicity, beagle, Oral, Capsule, dose end: 52 week, group: systemic
mouse [6] = settings: Carcinogenicity, cd1, Oral, Diet, dose end: 85 week, group: systemic
mouse [7] = settings: Combined chronic toxicity/carcinogenicity, cd1, Oral, Diet, dose end: 104 week, group: systemic
rat [8] = settings: Prenatal developmental toxicity study, other, Oral, Gavage/Intubation, dose end: 15 GD
rat [9] = settings: Combined chronic toxicity/carcinogenicity, wistar, Oral, Feed, dose end: 103 week, group: systemic
rat [10] = settings: Multigenerational reproductive toxicity study, other, Oral, Feed, dose end: 2 generation
rat [11] = settings: Multigenerational reproductive toxicity study, sprague dawley, Oral, Feed, dose end: 3 generation
rat [12] = settings: Chronic toxicity; other; Oral; Feed; dose end: 26 week; group: systemic; systemic / in life observation / body weight / body weight gain + systemic / in life observation / food consumption / food consumption + …
dog [13] = settings: Sub-acute repeat dose toxicity; beagle; Injection; Intravenous; dose end: 1 month; group: systemic; systemic / hematology / erythrocyte (rbc) count differential / erythrocyte (rbc) + systemic / hematology / hematocrit (hct) / hematocrit (…
dog [14] = settings: Chronic toxicity; beagle; Oral; Capsule; dose end: 33 week; group: systemic; systemic / hematology / hematocrit (hct) / hematocrit (hct) + systemic / hematology / hemoglobin (hgb) / hemoglobin (hgb) + systemic / organ…
mouse [15] = settings: Developmental neurotoxicity study; cd1; Inhalation; Whole-Body; dose end: 20 PND; group: cannot be grouped; systemic / in life observation / body weight / offspring (pup) weight gain + systemic / in life observation / clinical signs / grip strength
rat [16] = settings: Developmental neurotoxicity study; sprague dawley; Inhalation; Whole-Body; dose end: 21 PND; group: cannot be grouped; developmental / developmental malformation / general / [other] + systemic / in life observation / body weight / offspring (pup) weight + …
rat [17] = settings: Developmental neurotoxicity study; wistar; Inhalation; Whole-Body; dose end: 98 PND; group: cannot be grouped; systemic / in life observation / body weight / offspring (pup) weight
rat [18] = settings: Developmental neurotoxicity study, sprague dawley, Inhalation, Whole-Body, dose end: 63 PND, group: cannot be grouped
rat [19] = settings: Developmental neurotoxicity study, wistar, Inhalation, Whole-Body, dose end: 81 PND, group: cannot be grouped
rat [20] = settings: Developmental neurotoxicity study; wistar; Inhalation; Whole-Body; dose end: 119 PND; group: cannot be grouped; systemic / in life observation / body weight / offspring (pup) weight
[21] = systemic / organ weight / liver / absolute + systemic / organ weight / liver / relative to body weight + systemic / pathology gross / liver…
[22] = systemic / organ weight / liver / absolute + systemic / organ weight / liver / relative to body weight + systemic / pathology microscopic / …
[23] = systemic / pathology microscopic / liver / vacuolization cytoplasmic + systemic / organ weight / liver / nos + systemic / pathology gross…
[24] = group: developmental, developmental / developmental malformation / bone / fused + developmental / developmental malformation / bone / supernumerary
[25] = group: maternal, reproductive / reproductive performance / resorptions / resorptions
[26] = systemic / in life observation / body weight / body weight gain + systemic / in life observation / food consumption / food consumption + …
[27] = systemic / in life observation / mortality / mortality + systemic / pathology microscopic / adrenal gland / amyloid deposition + systemic / …
[28] = group: developmental, developmental / developmental malformation / bone / [other] + developmental / developmental malformation / bone / delayed ossification + …
[29] = group: maternal, systemic / in life observation / body weight / body weight + systemic / in life observation / body weight / body weight gain + systemic / in…
[30] = systemic / organ weight / spleen / nos + systemic / organ weight / spleen / relative to body weight
[31] = group: offspring, developmental / offspring survival late / viability index / viability index + systemic / in life observation / body weight / offspring (pup…
[32] = group: offspring, systemic / in life observation / body weight / offspring (pup) weight + systemic / in life observation / body weight / offspring (pup) …
[33] = group: parental, systemic / in life observation / body weight / body weight gain
[34] = group: parental, systemic / in life observation / body weight / body weight gain + systemic / in life observation / body weight / body weight + systemic / in…
[35] = group: reproductive, reproductive / reproductive performance / mating / mating
[36] = group: offspring, systemic / in life observation / body weight / offspring (pup) weight
[37] = group: parental, systemic / in life observation / body weight / body weight
[38] = group: reproductive, reproductive / offspring survival early / birth index / live birth index
[39] = systemic / in life observation / body weight / body weight gain + systemic / in life observation / clinical signs / motor activity
[40] = systemic / in life observation / body weight / body weight gain + systemic / in life observation / clinical signs / motor activity + …
[41] = systemic / in life observation / body weight / body weight + systemic / in life observation / body weight / body weight gain + developmental…

With `ClC(Cl)C(Cl)Cl` [1,1,2,2-Tetrachloroethane] the LEL (mouse [1]) was 142 mg/kg/day, the LOAEL (mouse [1]) was over 284 mg/kg/day and the NEL (mouse [1]) was under 142 mg/kg/day. The NOAEL (mouse [1]) was at least 284 mg/kg/day, the LEL (rat [2]) was 43 mg/kg/day and the LOAEL (rat [2]) was over 76 mg/kg/day. It also gave an NEL (rat [2]) of under 43 mg/kg/day, an NOAEL (rat [2]) of at least 76 mg/kg/day and an LEL (mouse [3]; [21]) of 80 mg/kg/day. It also gave an NEL (mouse [3]; [21]) of under 80 mg/kg/day, an LOAEL (mouse [3]; [22]) of 160 mg/kg/day and an NOAEL (mouse [3]; [22]) of 80 mg/kg/day. The LOAEL (rat [4]; systemic / in life observation / body weight / body weight gain + systemic / pathology microscopic / liver / vacuolization cytoplasmic) was 40 mg/kg/day, the NOAEL (rat [4]; systemic / in life observation / body weight / body weight gain + systemic / pathology microscopic / liver / vacuolization cytoplasmic + …) was 20 mg/kg/day and the LEL (rat [4]; [23]) was 20 mg/kg/day. It also gave an NEL (rat [4]; [23]) of under 20 mg/kg/day.
Work on `CC(C)=CC1C(C(=O)OCc2coc(Cc3ccccc3)c2)C1(C)C` (stereo not drawn) [Resmethrin] yielded an LEL (rabbit; [24]) of 100 mg/kg/day, an LOAEL (rabbit; [24]) of 100 mg/kg/day and an NEL (rabbit; [24]) of 30 mg/kg/day. The NOAEL (rabbit; [24]) was 30 mg/kg/day, the LEL (rabbit; [25]) was 100 mg/kg/day and the LOAEL (rabbit; [25]) was 100 mg/kg/day. For the same compound, the NEL (rabbit; [25]) was 30 mg/kg/day, the NOAEL (rabbit; [25]) was 30 mg/kg/day and the NEL (dog [5]; [26]) was 108 mg/kg/day. For the same compound, the NOAEL (dog [5]; [26]) was 108 mg/kg/day, the LOAEL (dog [5]; systemic / in life observation / body weight / body weight gain + systemic / pathology microscopic / eye / cataract, subcapsular) was 430 mg/kg/day and the LEL (dog [5]; systemic / in life observation / body weight / body weight gain + systemic / pathology microscopic / eye / cataract, subcapsular + systemic…) was 430 mg/kg/day. For the same compound, the LOAEL (mouse [6]; [27]) was 138 mg/kg/day, the NEL (mouse [6]; [27]) was 36.3 mg/kg/day and the NOAEL (mouse [6]; [27]) was 71.3 mg/kg/day. It also gave an LEL (mouse [6]; systemic / organ weight / adrenal gland / absolute + systemic / organ weight / adrenal gland / relative to body weight + systemic / organ …) of 71.3 mg/kg/day, an LOAEL (mouse [7]; systemic / in life observation / mortality / mortality) of 84.3 mg/kg/day and an NOAEL (mouse [7]; systemic / in life observation / mortality / mortality + systemic / pathology microscopic / liver / adenoma/carcinoma combined + systemic / …) of 43.4 mg/kg/day. The LEL (mouse [7]; [22]) was 43.4 mg/kg/day, the NEL (mouse [7]; [22]) was under 43.4 mg/kg/day and the LEL (rat [8]; [28]) was 80 mg/kg/day. The LOAEL (rat [8]; [28]) was 80 mg/kg/day, the NEL (rat [8]; [28]) was 40 mg/kg/day and the NOAEL (rat [8]; [28]) was 40 mg/kg/day. It also gave an LEL (rat [8]; [29]) of 80 mg/kg/day, an LOAEL (rat [8]; [29]) of 80 mg/kg/day and an NEL (rat [8]; [29]) of 40 mg/kg/day. It also gave an NOAEL (rat [8]; [29]) of 40 mg/kg/day, an LOAEL (rat [9]; systemic / organ weight / liver / absolute + systemic / in life observation / body weight / body weight + systemic / in life observation / …) of 233 mg/kg/day and an NOAEL (rat [9]; systemic / organ weight / liver / absolute + systemic / organ weight / liver / relative to body weight + systemic / organ weight / spleen / …) of 47 mg/kg/day. It also gave an LEL (rat [9]; [30]) of 47 mg/kg/day, an NEL (rat [9]; [30]) of under 47 mg/kg/day and an LOAEL (rat [10]; [31]) of 70.8 mg/kg/day. For the same compound, the NOAEL (rat [10]; [31]) was 34.8 mg/kg/day, the LEL (rat [10]; [32]) was 34.8 mg/kg/day and the NEL (rat [10]; [32]) was 17.4 mg/kg/day. The NEL (rat [10]; [33]) was 34.8 mg/kg/day, the NOAEL (rat [10]; [33]) was 34.8 mg/kg/day and the LEL (rat [10]; [34]) was 70.8 mg/kg/day. The LOAEL (rat [10]; [34]) was 70.8 mg/kg/day, the LEL (rat [10]; [35]) was 70.8 mg/kg/day and the LOAEL (rat [10]; [35]) was 70.8 mg/kg/day. The NEL (rat [10]; [35]) was 34.8 mg/kg/day, the NOAEL (rat [10]; [35]) was 34.8 mg/kg/day and the LEL (rat [11]; [36]) was 25 mg/kg/day. It also gave an LOAEL (rat [11]; [36]) of 25 mg/kg/day, an NEL (rat [11]; [36]) of under 25 mg/kg/day and an NOAEL (rat [11]; [36]) of under 25 mg/kg/day. It also gave an LEL (rat [11]; [37]) of 40 mg/kg/day, an LOAEL (rat [11]; [37]) of 40 mg/kg/day and an NEL (rat [11]; [37]) of 25 mg/kg/day. For the same compound, the NOAEL (rat [11]; [37]) was 25 mg/kg/day, the LEL (rat [11]; [38]) was 40 mg/kg/day and the LOAEL (rat [11]; [38]) was over 62.5 mg/kg/day. For the same compound, the NEL (rat [11]; [38]) was 25 mg/kg/day and the NOAEL (rat [11]; [38]) was at least 62.5 mg/kg/day.
With `CN(C)[C@@H]1C(=O)C(C(N)=O)=C(O)[C@@]2(O)C(=O)C3=C(O)c4c(O)cccc4[C@@](C)(O)[C@H]3C[C@@H]12` [Tetracycline] the LEL (rat [12]) was 125 mg/kg/day, the LOAEL (rat [12]) was over 500 mg/kg/day and the NEL (rat [12]) was under 125 mg/kg/day. It also gave an NOAEL (rat [12]) of at least 500 mg/kg/day, an LEL (dog [13]) of 40 mg/kg/day and an LOAEL (dog [13]) of over 40 mg/kg/day. It also gave an NEL (dog [13]) of under 40 mg/kg/day, an NOAEL (dog [13]) of at least 40 mg/kg/day and an LEL (dog [14]) of 500 mg/kg/day. It also gave an LOAEL (dog [14]) of over 500 mg/kg/day, an NEL (dog [14]) of 250 mg/kg/day and an NOAEL (dog [14]) of at least 500 mg/kg/day.
Work on `Cc1ccccc1` [Toluene] yielded an LEL (mouse [15]) of 2000 ppm, an LOAEL (mouse [15]) of over 2000 ppm and an NEL (mouse [15]) of 400 ppm. The NOAEL (mouse [15]) was at least 2000 ppm, the LEL (rat [16]) was 12000 ppm and the LOAEL (rat [16]) was over 12000 ppm. The NEL (rat [16]) was 8000 ppm, the NOAEL (rat [16]) was at least 12000 ppm and the LEL (rat [17]) was 1800 ppm. The LOAEL (rat [17]) was over 1800 ppm, the NEL (rat [17]) was under 1800 ppm and the NOAEL (rat [17]) was at least 1800 ppm. It also gave an LEL (rat [18]; [39]) of 8000 ppm, an NEL (rat [18]; [39]) of under 8000 ppm and an LOAEL (rat [18]; [40]) of over 12000 ppm. It also gave an NOAEL (rat [18]; [40]) of at least 12000 ppm, an NEL (rat [19]; systemic / in life observation / body weight / body weight + systemic / in life observation / body weight / body weight gain) of 600 ppm and an LEL (rat [19]; [41]) of 1000 ppm. It also gave an LOAEL (rat [19]; [41]) of over 1200 ppm, an NOAEL (rat [19]; [41]) of at least 1200 ppm and an LEL (rat [20]) of 1200 ppm. For the same compound, the LOAEL (rat [20]) was over 1200 ppm, the NEL (rat [20]) was under 1200 ppm and the NOAEL (rat [20]) was at least 1200 ppm.
